Results on two molecules are retold here after patent publication US11129801B2 (SigmaThera SAS, priority 2016, dated 2021).

For one assay, the system named is Bax/Bcl-2. Put plainly: ELISA of cortical Bax/Bcl-2 ratio, Aβ25-35 mouse model. The note with it: Experiment 2, post-treatment, 1 mg/kg. The format is in vivo. The method, then:
In Experiment 2, twelve mice per experimental group were administered Sc.Aβ or Aβ25-35-amyloid peptide on day 0 by i.c.v. injection. […] Animals were tested at day 7 and later.
For each of Experiments 1-4, on day 7, all animals were tested for the spontaneous alternation performance in the Y-maze test, an index of spatial working memory. On day 8 and 9, the contextual long-term memory of the animals was assessed using the step-through type passive avoidance procedure. On day 9, immediately after the retention session, animals were sacrificed by decapitation and the hippocampus and cortex dissected out. Lipid peroxidation was analyzed in the hippocampus, whereas neuroinflammation, apoptosis, amyloid burden and hyperphosphorylation of tau protein were analyzed in cortex.
Enzyme-linked immunosorbant assay (ELISA) assays: Contents in GFAP, Caspase 12, Amyloid-beta 1-40, Amyloid-beta 1-42, Total Tau, and pTau on Ser199 were analyzed by using commercial ELISA assay kit. • GFAP: Supplier: USCNK #Ref: SEA068Mu • Total Tau: Supplier: Novex #Ref: KMB7011 • pTau (S199): Supplier: Novex #Ref: KMB7041 • Amyloid beta 1-40: Supplier: Novex #Ref: KMB3481 • Amyloid beta 1-42: Supplier: Novex #Ref: KMB3441 • Caspase-12: Supplier: LSBio #Ref: LS-F11023 • BAX: Supplier: Euromedex#Ref: SEB343Mu • BCL2: Supplier: Euromedex #Ref: SEA778Mu […]
On the technique in general: In an ELISA, binding on a coated surface is turned into a signal by an enzyme label.

In assay [1] the test system is rat primary dopaminergic neurons (TH positive neurons). Put plainly: Survival of primary dopaminergic neurons injured by 6OHDA. The assay is classed as cell-based. The settings on record: 6OHDA 20 μM, 48 h. The method, then: Rat dopaminergic neurons were cultured as described (Schinelli S, et al. Journal of neurochemistry 50(6): 1900-1907). Briefly pregnant female rats of 15 days gestation were killed by cervical dislocation (Rats Wistar; Janvier) and the foetuses removed from the uterus. The embryonic midbrains were removed and placed in ice-cold medium of Leibovitz 15 (L15; PanBiotech, Ref P04-27055, Batch: 8810315) containing 2% of Penicillin-Streptomycin (PS; PanBiotech, ref: P06-07100, Batch: 7511015) and 1% of bovine serum albumin (BSA; PanBiotech, Ref: P06-1391100, Batch: H140904). Only the ventral portions of the mesencephalic flexure were used for the cell preparations as this region of the developing brain is rich in dopaminergic neurons. The midbrains were dissociated by trypsinization for 20 minutes (min) at 37° C. (Trypsin EDTA 1×; PanBiotech, Ref: P10-023100, batch: 1670415). The reaction was stopped by the addition of Dulbecco's modified Eagle's medium (DMEM; PanBiotech, Ref: P04-03600, Batch: 9021115) containing DNase I grade II (0.1 mg/ml; PanBiotech, Ref: P60-37780100, Batch: H140508) and 10% of fetal calf serum (FCS; Invitrogen). Cells were then mechanically dissociated by 3 passages through a 10 ml pipette. Cells were then centrifuged at 180×g for 10 min at 4° C. on a layer of BSA (3.5%) in L15 medium. The supernatant was discarded and the cell pellets were re-suspended in a defined culture medium consisting of Neurobasal (Invitrogen, Ref: 21103, Batch: 1754639) supplemented with B27 (2%; Invitrogen, ref: 17504, batch: 1799273), L-glutamine (2 mM; PanBiotech, Ref: P04-80100, Batch: 6620314) and 2% of PS, 10 ng/mL of BDNF (PanBiotech, Ref: CB-1115002, Batch: 121027) and 1 ng/mL of GDNF (PanBiotech, Ref: CB-1116001, Batch: H151004). Viable cells were counted in a Neubauer cytometer using the trypan blue exclusion test. The cells were seeded at a density of 4×10^4 cells/well in 96 well-plates (pre-coated with poly-D-lysine; Greiner, Ref: E150033VJ) and were cultured at 37° C. in a humidified air (95%)/CO2 (5%) atmosphere. Half of the medium was changed every 2 days with fresh medium. In these conditions, after 5 days of culture, astrocytes are present in the culture and release growth factor allowing neurons differentiation. Five to six percent of the neuronal cell population was dopaminergic neurons.
Briefly, on day 6 of culture, cells were pre-treated for 1 h with test compound or reference compound then intoxicated with 6OHDA (20 μM) for 48 h. The following conditions were done:
[…]_+6OHDA (20 μM, 48 h+BDNF (50 ng/ml) as a reference compound
One culture was done with 6 wells per condition. […]
The data were expressed as mean±s.e.m. […]

For the next assay, the system named is sigma-1R. The settings on record: read-out: IC50 / affinity for sigma-1R; cited from earlier work.

Take `CCC(C/C=C/c1ccccc1)(c1ccccc1)N(C)CC1CC1` (single isomer, unassigned; (+)) [igmesine, (+)-(E)-N-(cyclopropylmethyl)-N-methyl-3,6-diphenylhex-5-en-3-amine]: in the assay on Bax/Bcl-2, the “cortical Bax/Bcl-2 ratio elevation” value is on record as “fully normalized”. Besides, the TH positive neurons in assay [1] (0.3 μM) was 94.58 % of the control; in assay [1] (1 μM) it was 100.49 % of the control; in assay [1] (3 μM) it was 87.68 % of the control. Moreover, the IC50 with sigma-1R is 39 ± 8 nM.

B1: BDNF: Brain-derived neurotrophic factor, used as a reference compound (protein, UniProt P23560 19-247, looked up)
Neurotrophic factor BDNF …: APMKEANIRGQGGLAYPGVRTHGTLESVNGPKAGSRGLTSLADTFEHVIEELLDEDQKVRPNEENNKDADLYTSRVMLSSQVPLEPPLLFLLEEYKNYLDAANMSMRVRRHSDPARRGELSVCDSISEWVTAADKKTAVDMSGGTVTVLEKVPVSKGQLKQYFYETKCNPMGYTKEGCRGIDKRHWNSQCRTTQSYVRALTMDSKKRIGWRFIRIDTSCVCTLTIKRGR
B1: in assay [1] (50 ng/mL), the TH positive neurons is 91.03 % of the control.
